According to PubChem BioAssay (NCI):
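Exposure lasted 48 hours, with cells grown in 96-well plates and compounds tested at five concentrations. GI50: concentration for 50% inhibition of growth. TGI denotes the concentration required for complete inhibition of growth.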

Key:
Assay in all cases: DTP human tumour cell line panel, 48 h
[1] = system: ACHN renal
[2] = system: HL-60(TB) leukemia
[3] = system: COLO 205 colon
[4] = system: SK-MEL-28 melanoma
[5] = system: RXF 393 renal
[6] = system: MOLT-4 leukemia
[7] = system: EKVX NSCLC
[8] = system: HOP-92 NSCLC
[9] = system: MALME-3M melanoma
[10] = system: CCRF-CEM leukemia
[11] = system: UACC-257 melanoma
[12] = system: TK-10 renal
[13] = system: SNB-19 CNS
[14] = system: NCI-H522 lung
[15] = system: HCT-116 colon
[16] = system: A549 NSCLC
[17] = system: MDA-MB-231 breast
[18] = system: HT29 colon
[19] = system: SK-OV-3 ovarian
[20] = system: KM12 colon
[21] = system: SW-620 colon
[22] = system: DU-145 prostate
[23] = system: LOX IMVI melanoma
[24] = system: OVCAR-3 ovarian
[25] = system: A498 renal
[26] = system: SR leukemia
[27] = system: SF-268 CNS
[28] = system: 786-0 renal
[29] = system: M14 melanoma
[30] = system: T-47D breast
[31] = system: SK-MEL-2 melanoma
[32] = system: OVCAR-4 ovarian
[33] = system: MDA-MB-435
[34] = system: HS 578T breast
[35] = system: NCI-H226 lung
[36] = system: SN12C renal
[37] = system: BT-549 breast
[38] = system: CAKI-1 renal
[39] = system: SNB-75 CNS
[40] = system: K-562 leukemia
[41] = system: SF-539 CNS
[42] = system: OVCAR-8 ovarian
[43] = system: NCI-H460 lung
[44] = system: IGROV1 ovarian
[45] = system: UO-31 renal
[46] = system: SK-MEL-5 melanoma
[47] = system: SF-295 CNS
[48] = system: RPMI-8226 leukemia
[49] = system: HCT-15 colon
[50] = system: U251 CNS
[51] = system: HOP-62 NSCLC
[52] = system: PC-3 prostate
[53] = system: MCF7 breast
[54] = system: OVCAR-5 ovarian
[55] = system: HCC-2998 colon
[56] = system: NCI-H23 lung
[57] = system: NCI/ADR-RES ovarian

Molecule CCOC(=O)c1c2c(n(Cc3ccc(Cl)cc3Cl)c1C)-c1nc[nH]c1C(=O)C2=O has a GI50 [1] of 4.45 µM, a TGI [1] of 16.1 µM and a GI50 [2] of 2.18 µM. The TGI [2] was 5.14 µM, the GI50 [3] was 17.4 µM and the TGI [3] was 32.1 µM. For the same molecule, the GI50 [4] was 15.6 µM, the TGI [4] was 28.9 µM and the GI50 [5] was 10.2 µM. The TGI [5] was 22.7 µM, the GI50 [6] was 1.8 µM and the TGI [6] was 3.97 µM. For the same molecule, the GI50 [7] was 13 µM, the TGI [7] was 27.4 µM and the GI50 [8] was 1.28 µM. It also gave a TGI [8] of 2.75 µM, a GI50 [9] of 11.6 µM and a TGI [9] of 27.4 µM. The GI50 [10] was 0.651 µM, the TGI [10] was 2.29 µM and the GI50 [11] was 14.2 µM. For the same molecule, the TGI [11] was 27.3 µM, the GI50 [12] was 20.1 µM and the TGI [12] was 41.2 µM. The GI50 [13] was 12.6 µM, the TGI [13] was 26.2 µM and the GI50 [14] was 10.3 µM. It also gave a TGI [14] of 23.1 µM, a GI50 [15] of 2.16 µM and a TGI [15] of 5.66 µM. It also gave a GI50 [16] of 10.9 µM, a TGI [16] of 23.1 µM and a GI50 [17] of 2.24 µM. It also gave a TGI [17] of 5.04 µM, a GI50 [18] of 15.5 µM and a TGI [18] of 28.8 µM. For the same molecule, the GI50 [19] was 19.9 µM, the TGI [19] was 34.2 µM and the GI50 [20] was 5.87 µM. It also gave a TGI [20] of 19.4 µM, a GI50 [21] of 6.19 µM and a TGI [21] of 18.2 µM. The GI50 [22] was 11.8 µM, the TGI [22] was 24.1 µM and the GI50 [23] was 3.54 µM. The TGI [23] was 13.7 µM, the GI50 [24] was 2.86 µM and the TGI [24] was 10.6 µM. For the same molecule, the GI50 [25] was 19.7 µM, the TGI [25] was 36.1 µM and the GI50 [26] was 1.21 µM. For the same molecule, the TGI [26] was 2.79 µM, the GI50 [27] was 7.89 µM and the TGI [27] was 20.4 µM. For the same molecule, the GI50 [28] was 3.37 µM, the TGI [28] was 11.3 µM and the GI50 [29] was 14.7 µM. For the same molecule, the TGI [29] was 27.8 µM, the GI50 [30] was 1.65 µM and the TGI [30] was 5.03 µM. For the same molecule, the GI50 [31] was 19.5 µM, the TGI [31] was 41.2 µM and the GI50 [32] was 6.58 µM. For the same molecule, the TGI [32] was 19.3 µM, the GI50 [33] was 13.5 µM and the TGI [33] was 30.1 µM. For the same molecule, the GI50 [34] was 23.1 µM, the TGI [34] was 74.5 µM and the GI50 [35] was 14.2 µM. The TGI [35] was 31.5 µM, the GI50 [36] was 3.02 µM and the TGI [36] was 13.1 µM. The GI50 [37] was 15.5 µM, the TGI [37] was 31.8 µM and the GI50 [38] was 13.4 µM. For the same molecule, the TGI [38] was 31.8 µM, the GI50 [39] was 1.99 µM and the TGI [39] was 9.62 µM. It also gave a GI50 [40] of 3.21 µM, a TGI [40] of 12.3 µM and a GI50 [41] of 4.4 µM. For the same molecule, the TGI [41] was 16.4 µM, the GI50 [42] was 10.5 µM and the TGI [42] was 22.2 µM. It also gave a GI50 [43] of 4.79 µM, a TGI [43] of 15.9 µM and a GI50 [44] of 11.2 µM. The TGI [44] was 24 µM, the GI50 [45] was 12.4 µM and the TGI [45] was 49.5 µM. For the same molecule, the GI50 [46] was 13 µM, the TGI [46] was 25.7 µM and the GI50 [47] was 20.5 µM. It also gave a TGI [47] of 92.2 µM, a GI50 [48] of 2.5 µM and a TGI [48] of 6.03 µM. It also gave a GI50 [49] of 11 µM, a TGI [49] of 23 µM and a GI50 [50] of 7.01 µM. The TGI [50] was 19.5 µM, the GI50 [51] was 16.4 µM and the TGI [51] was 32.6 µM.

COc1ccc(CNC(=O)NCn2cc(-c3ccccc3)nn2)cc1 was tested, and the TGI [52] was > 100 µM, the TGI [1] was > 100 µM and the TGI [2] was > 100 µM. The TGI [3] was > 100 µM, the TGI [4] was > 100 µM and the TGI [6] was > 100 µM. For the same molecule, the TGI [7] was > 100 µM, the TGI [8] was > 100 µM and the TGI [9] was > 100 µM. For the same molecule, the TGI [10] was > 100 µM, the TGI [11] was > 100 µM and the TGI [12] was > 100 µM. For the same molecule, the TGI [13] was > 100 µM, the TGI [14] was > 100 µM and the TGI [15] was > 100 µM. The TGI [16] was > 100 µM, the TGI [17] was > 100 µM and the TGI [18] was > 100 µM. The TGI [53] was > 100 µM, the TGI [20] was > 100 µM and the TGI [54] was > 100 µM. The TGI [21] was > 100 µM, the TGI [22] was > 100 µM and the TGI [23] was > 100 µM. The TGI [55] was > 100 µM, the TGI [26] was > 100 µM and the TGI [56] was > 100 µM. For the same molecule, the TGI [27] was > 100 µM, the TGI [28] was > 100 µM and the TGI [29] was > 100 µM. For the same molecule, the TGI [31] was > 100 µM, the TGI [32] was > 100 µM and the TGI [33] was > 100 µM. For the same molecule, the TGI [36] was > 100 µM, the TGI [57] was > 100 µM and the TGI [37] was > 100 µM. The TGI [38] was > 100 µM, the TGI [39] was > 100 µM and the TGI [40] was > 100 µM. For the same molecule, the TGI [41] was > 100 µM, the TGI [42] was > 100 µM and the TGI [43] was > 100 µM. For the same molecule, the TGI [44] was > 100 µM, the TGI [46] was > 100 µM and the TGI [47] was > 100 µM. The TGI [48] was > 100 µM, the TGI [49] was > 100 µM and the TGI [50] was > 100 µM. The TGI [51] was > 100 µM.
